Molecules are shown by their SMILES. Read-outs that look alike come from different tables or passages of the source.

Drawing on patent publication US11981658B2, “Substituted aminopyridine compounds as EGFR inhibitors” (YUHAN CORPORATION, priority 2021, dated 2024), this text covers IC50 for five molecules.

One test concerns the target EGFR L858R/C797S (Homo sapiens, UniProt P00533, C797S/L858R). The test is described as follows: Biochemical EGFR kinase inhibition assay (Lance Ultra TR-FRET), double mutant L858R/C797S. The method, boiled down: (§1)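 In this biochemical assay, phosphorylation after a one-hour room-temperature reaction was detected with europium-labelled anti-phosphopeptide antibody at 2 nM final concentration.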
Background: TR-FRET usually uses a lanthanide donor and a delayed reading to cut background.

For a further test, the target named is EGFR wildtype (WT) (Homo sapiens, UniProt P00533). The test is described as follows: Biochemical EGFR kinase inhibition assay (Lance Ultra TR-FRET), wildtype. The method, boiled down:
as §1

The target in a further test is EGFR Del19/T790M/C797S (Homo sapiens, UniProt P00533, C797S/DEL746-750/T790M). Kind of test: Biochemical EGFR kinase inhibition assay (Lance Ultra TR-FRET), triple mutant del19/T790M/C797S. The method, boiled down:
as §1

For a further test, the target named is EGFR Del19/C797S (Homo sapiens, UniProt P00533, C797S/DEL746-750). Kind of test: Biochemical EGFR kinase inhibition assay (Lance Ultra TR-FRET), double mutant del19/C797S. A digest of the protocol:
as §1

For the next test, the target named is EGFR L858R/T790M/C797S (Homo sapiens, UniProt P00533, C797S/L858R/T790M). The test is described as follows: Biochemical EGFR kinase inhibition assay (Lance Ultra TR-FRET), triple mutant L858R/T790M/C797S. A digest of the protocol: as §1
[1] abbreviates: ATP at Km, read-out: IC50 L858R/C797S (nM), Km ATP.
Setting [2] is: IC50 L858R/C797S (nM), 100 μM ATP.
The mark [3] stands for this setting: ATP at Km, read-out: IC50 WT (nM), Km ATP.
The mark [4] stands for this setting: IC50 Del19/T790M/C797S (nM), 100 μM ATP.
The mark [5] stands for this setting: ATP at Km, read-out: IC50 Del19/C797S (nM), Km ATP.
[6] abbreviates: IC50 Del19/C797S (nM), 100 μM ATP.
Setting [7] is: IC50 L858R/T790M/C797S (nM), 100 μM ATP.
Setting [8] is: Km ATP, read-out: IC50 L858R/C797S (nM), Km ATP.
Setting [9] is: Km ATP, read-out: IC50 WT (nM), Km ATP.
Setting [10] is: Km ATP, read-out: IC50 Del19/T790M/C797S (nM), Km ATP.
[11] abbreviates: Km ATP, read-out: IC50 Del19/C797S (nM), Km ATP.
Setting [12] is: Km ATP, read-out: IC50 L858R/T790M/C797S (nM), Km ATP.

Sequence of EGFR wildtype (WT) (P00533 25-1210): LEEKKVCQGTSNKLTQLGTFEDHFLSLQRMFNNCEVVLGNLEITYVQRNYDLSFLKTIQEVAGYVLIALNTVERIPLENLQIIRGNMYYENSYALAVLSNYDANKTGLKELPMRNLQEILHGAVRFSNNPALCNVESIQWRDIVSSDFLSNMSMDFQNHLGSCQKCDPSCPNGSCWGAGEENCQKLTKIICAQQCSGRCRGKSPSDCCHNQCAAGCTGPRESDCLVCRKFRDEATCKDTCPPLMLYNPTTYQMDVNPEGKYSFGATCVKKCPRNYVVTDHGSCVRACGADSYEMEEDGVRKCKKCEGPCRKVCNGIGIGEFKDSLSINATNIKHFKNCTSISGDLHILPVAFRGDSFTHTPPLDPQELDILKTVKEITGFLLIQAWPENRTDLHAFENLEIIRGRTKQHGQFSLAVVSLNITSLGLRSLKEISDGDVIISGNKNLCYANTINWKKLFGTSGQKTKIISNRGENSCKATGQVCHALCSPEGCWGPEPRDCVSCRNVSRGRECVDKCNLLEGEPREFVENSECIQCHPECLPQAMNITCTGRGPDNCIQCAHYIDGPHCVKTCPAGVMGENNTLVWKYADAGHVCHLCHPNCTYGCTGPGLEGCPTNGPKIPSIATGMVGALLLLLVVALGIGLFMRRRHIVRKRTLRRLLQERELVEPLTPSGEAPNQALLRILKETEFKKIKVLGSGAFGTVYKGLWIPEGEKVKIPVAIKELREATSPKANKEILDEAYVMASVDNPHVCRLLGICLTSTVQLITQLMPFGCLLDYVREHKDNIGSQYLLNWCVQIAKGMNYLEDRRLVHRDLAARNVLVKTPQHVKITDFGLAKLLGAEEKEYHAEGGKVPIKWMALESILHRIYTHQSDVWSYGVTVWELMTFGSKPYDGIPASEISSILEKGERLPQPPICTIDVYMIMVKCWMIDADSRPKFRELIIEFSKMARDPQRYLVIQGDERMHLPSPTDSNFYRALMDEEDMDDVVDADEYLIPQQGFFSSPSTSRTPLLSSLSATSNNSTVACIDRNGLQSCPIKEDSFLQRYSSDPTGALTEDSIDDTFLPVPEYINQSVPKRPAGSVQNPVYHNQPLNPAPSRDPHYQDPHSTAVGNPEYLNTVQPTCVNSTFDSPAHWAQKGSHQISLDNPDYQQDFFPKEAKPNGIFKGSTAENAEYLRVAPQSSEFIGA
Sequence of EGFR Del19/C797S (P00533 with tags, fused parts or gaps DEL746-750/C797S): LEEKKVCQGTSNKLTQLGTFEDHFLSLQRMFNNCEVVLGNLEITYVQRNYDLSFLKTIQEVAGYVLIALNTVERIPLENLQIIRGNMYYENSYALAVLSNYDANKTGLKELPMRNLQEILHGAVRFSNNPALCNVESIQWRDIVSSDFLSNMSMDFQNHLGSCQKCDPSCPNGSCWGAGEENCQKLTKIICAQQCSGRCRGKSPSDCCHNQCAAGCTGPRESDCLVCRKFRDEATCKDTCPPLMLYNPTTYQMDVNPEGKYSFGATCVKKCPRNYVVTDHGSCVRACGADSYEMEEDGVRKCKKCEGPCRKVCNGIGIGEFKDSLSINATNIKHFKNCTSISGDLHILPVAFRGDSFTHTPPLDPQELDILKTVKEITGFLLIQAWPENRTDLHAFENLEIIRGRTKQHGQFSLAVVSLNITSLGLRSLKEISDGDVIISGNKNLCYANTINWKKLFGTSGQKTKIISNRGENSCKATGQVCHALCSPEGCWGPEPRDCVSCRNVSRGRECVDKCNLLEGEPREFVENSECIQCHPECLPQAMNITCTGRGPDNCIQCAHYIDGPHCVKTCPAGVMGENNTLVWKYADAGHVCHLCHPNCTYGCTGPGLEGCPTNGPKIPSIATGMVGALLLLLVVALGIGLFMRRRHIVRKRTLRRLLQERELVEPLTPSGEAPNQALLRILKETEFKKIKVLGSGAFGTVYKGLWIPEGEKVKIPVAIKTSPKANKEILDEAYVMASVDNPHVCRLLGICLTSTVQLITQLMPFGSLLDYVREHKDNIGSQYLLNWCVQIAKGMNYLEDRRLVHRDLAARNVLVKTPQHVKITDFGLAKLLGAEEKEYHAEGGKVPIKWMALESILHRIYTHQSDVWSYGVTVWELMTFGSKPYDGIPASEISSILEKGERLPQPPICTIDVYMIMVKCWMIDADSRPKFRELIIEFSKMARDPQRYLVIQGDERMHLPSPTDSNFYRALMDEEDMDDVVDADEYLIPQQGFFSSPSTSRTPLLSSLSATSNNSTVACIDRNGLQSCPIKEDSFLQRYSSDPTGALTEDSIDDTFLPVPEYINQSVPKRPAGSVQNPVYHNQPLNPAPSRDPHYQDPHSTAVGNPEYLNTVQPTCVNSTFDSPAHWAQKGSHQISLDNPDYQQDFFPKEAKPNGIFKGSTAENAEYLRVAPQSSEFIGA
Sequence of EGFR Del19/T790M/C797S (P00533 with tags, fused parts or gaps DEL746-750/T790M/C797S): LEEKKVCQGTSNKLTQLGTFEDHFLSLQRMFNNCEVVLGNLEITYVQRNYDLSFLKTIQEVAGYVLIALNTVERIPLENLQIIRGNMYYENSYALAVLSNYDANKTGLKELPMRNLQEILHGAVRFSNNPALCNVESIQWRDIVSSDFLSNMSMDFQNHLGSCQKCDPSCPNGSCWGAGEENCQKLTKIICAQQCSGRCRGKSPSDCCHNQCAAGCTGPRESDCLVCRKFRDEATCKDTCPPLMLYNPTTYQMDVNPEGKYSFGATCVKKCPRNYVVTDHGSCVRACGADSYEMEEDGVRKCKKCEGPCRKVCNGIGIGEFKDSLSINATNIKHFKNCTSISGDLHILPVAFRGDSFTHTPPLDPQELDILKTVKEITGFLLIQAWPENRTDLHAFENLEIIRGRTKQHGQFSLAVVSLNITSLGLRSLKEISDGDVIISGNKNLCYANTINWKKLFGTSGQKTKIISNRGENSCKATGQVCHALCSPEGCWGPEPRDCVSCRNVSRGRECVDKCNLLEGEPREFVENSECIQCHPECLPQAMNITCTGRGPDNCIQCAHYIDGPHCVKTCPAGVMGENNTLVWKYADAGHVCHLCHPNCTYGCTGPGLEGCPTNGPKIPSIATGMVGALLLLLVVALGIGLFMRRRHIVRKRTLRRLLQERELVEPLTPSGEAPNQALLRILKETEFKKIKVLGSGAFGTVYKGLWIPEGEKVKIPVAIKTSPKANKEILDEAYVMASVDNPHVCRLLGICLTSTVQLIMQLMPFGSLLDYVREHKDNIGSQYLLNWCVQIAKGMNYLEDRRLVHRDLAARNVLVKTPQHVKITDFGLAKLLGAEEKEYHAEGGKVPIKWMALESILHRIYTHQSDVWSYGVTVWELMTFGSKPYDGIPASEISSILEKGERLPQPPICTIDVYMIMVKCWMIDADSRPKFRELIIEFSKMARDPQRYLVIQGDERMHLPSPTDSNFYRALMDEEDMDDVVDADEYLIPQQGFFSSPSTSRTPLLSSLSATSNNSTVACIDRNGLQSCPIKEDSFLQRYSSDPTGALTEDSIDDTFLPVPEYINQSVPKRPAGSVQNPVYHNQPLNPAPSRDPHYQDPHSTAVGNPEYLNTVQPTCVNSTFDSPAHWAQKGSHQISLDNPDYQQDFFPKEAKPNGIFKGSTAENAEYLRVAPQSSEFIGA
Sequence of EGFR L858R/C797S (P00533 25-1210 C797S/L858R): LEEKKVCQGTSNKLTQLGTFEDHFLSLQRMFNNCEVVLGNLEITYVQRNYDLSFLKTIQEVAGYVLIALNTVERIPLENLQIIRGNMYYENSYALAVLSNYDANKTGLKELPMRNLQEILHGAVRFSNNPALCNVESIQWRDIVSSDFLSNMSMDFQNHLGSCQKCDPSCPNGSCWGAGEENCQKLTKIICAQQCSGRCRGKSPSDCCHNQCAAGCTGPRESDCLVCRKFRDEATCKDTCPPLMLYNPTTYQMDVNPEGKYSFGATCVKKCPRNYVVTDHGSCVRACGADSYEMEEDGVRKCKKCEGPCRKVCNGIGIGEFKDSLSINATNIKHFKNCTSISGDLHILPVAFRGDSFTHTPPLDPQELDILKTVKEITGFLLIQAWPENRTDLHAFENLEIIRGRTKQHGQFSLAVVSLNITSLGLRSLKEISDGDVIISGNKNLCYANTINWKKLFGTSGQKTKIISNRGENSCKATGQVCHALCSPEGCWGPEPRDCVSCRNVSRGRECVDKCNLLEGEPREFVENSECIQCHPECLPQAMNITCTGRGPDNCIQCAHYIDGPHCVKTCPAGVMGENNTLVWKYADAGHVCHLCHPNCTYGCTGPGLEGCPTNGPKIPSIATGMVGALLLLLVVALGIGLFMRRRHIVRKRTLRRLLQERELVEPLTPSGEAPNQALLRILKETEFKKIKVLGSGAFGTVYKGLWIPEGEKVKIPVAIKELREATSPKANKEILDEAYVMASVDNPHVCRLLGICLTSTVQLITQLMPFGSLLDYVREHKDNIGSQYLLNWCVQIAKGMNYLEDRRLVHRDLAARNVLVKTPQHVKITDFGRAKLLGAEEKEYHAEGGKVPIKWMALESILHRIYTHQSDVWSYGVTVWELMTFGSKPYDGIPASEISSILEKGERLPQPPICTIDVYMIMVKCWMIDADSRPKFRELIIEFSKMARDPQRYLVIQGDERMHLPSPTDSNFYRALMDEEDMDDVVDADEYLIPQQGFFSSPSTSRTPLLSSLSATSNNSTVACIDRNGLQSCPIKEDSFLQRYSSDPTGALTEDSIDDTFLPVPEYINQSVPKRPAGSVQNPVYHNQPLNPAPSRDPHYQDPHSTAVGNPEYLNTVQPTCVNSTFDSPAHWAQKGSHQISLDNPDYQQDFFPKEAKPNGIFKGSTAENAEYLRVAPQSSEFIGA

With `CN(C)C[C@H]1CC[C@@H](Nc2cc(Nc3ccnc(-c4cnn(S(=O)(=O)C5CC5)c4)n3)ncc2C#Cc2cnn(C(F)F)c2)CC1` [Example 310, N^2-(2-(1-(Cyclopropylsulfonyl)-1H-pyrazol-4-yl)pyrimidin-4-yl)-5-((1-(difluoromethyl)-1H-pyrazol-4-yl)ethynyl)-N^4-((1s,4s)-4-((dimethylamino)methyl)cyclohexyl)pyridine-2,4-diamine], the IC50 at EGFR L858R/C797S (setting [1]) came to 1.9 nM; against EGFR L858R/C797S (setting [2]), 56.3 nM; on EGFR wildtype (WT) (setting [3]) it was 44 nM; against EGFR wildtype (WT) (IC50 WT (nM), 100 μM ATP), 8840 nM; on EGFR Del19/T790M/C797S (setting [4]), 0.8 nM; at EGFR Del19/C797S (setting [5]), 2.9 nM. Besides, the IC50 on EGFR Del19/C797S (setting [6]) turned out to be 4.2 nM; on EGFR L858R/T790M/C797S (setting [7]), 1.3 nM.
For `O=C1CCN(c2cc(Nc3ccnc(-c4cnn(S(=O)(=O)C5CC5)c4)n3)ncc2C#Cc2cnn(C3CCOCC3)c2)CC1` [Example 93, 1-(2-((2-(1-(Cyclopropylsulfonyl)-1H-pyrazol-4-yl)pyrimidin-4-yl)amino)-5-((1-(tetrahydro-2H-pyran-4-yl)-1H-pyrazol-4-yl)ethynyl)pyridin-4-yl)piperidin-4-one], the IC50 is 372 nM at EGFR L858R/C797S (setting [2]); 18.3 nM on EGFR L858R/C797S (Km ATP, read-out: IC50 L858R/C797S (nM) Km ATP); more than 10000 nM against EGFR wildtype (WT) (IC50 WT (nM), 100 μM ATP); 260 nM at EGFR wildtype (WT) (Km ATP, read-out: IC50 WT (nM) Km ATP); 2.2 nM on EGFR Del19/T790M/C797S (setting [4]); 1.9 nM at EGFR Del19/T790M/C797S (Km ATP, read-out: IC50 Del19/T790M/C797S (nM) Km ATP). Also, the IC50 against EGFR Del19/C797S (setting [6]) turned out to be 64.8 nM; at EGFR Del19/C797S (Km ATP, read-out: IC50 Del19/C797S (nM) Km ATP) it was 43 nM; against EGFR L858R/T790M/C797S (setting [7]) it was 18.2 nM; on EGFR L858R/T790M/C797S (Km ATP, read-out: IC50 L858R/T790M/C797S (nM) Km ATP), 2.5 nM.
As for `CC1(CO)CCN(c2cc(Nc3ccnc(-c4cnn(S(=O)(=O)C5CC5)c4)n3)ncc2C#CC2(O)CCOC2)CC1` (stereo not drawn) [Example 355, 3-((6-((2-(1-(Cyclopropylsulfonyl)-1H-pyrazol-4-yl)pyrimidin-4-yl)amino)-4-(4-(hydroxymethyl)-4-methylpiperidin-1-yl)pyridin-3-yl)ethynyl)tetrahydrofuran-3-ol], the IC50 stood at 7.4 nM on EGFR L858R/C797S (setting [2]); 0.5 nM on EGFR L858R/C797S (setting [8]); 1740 nM at EGFR wildtype (WT) (IC50 WT (nM), 100 μM ATP); 4.8 nM at EGFR wildtype (WT) (setting [9]); 0.2 nM against EGFR Del19/T790M/C797S (setting [4]); 0.2 nM at EGFR Del19/T790M/C797S (setting [10]). The IC50 at EGFR Del19/C797S (setting [6]) was 0.4 nM; at EGFR Del19/C797S (setting [11]), 0.2 nM; at EGFR L858R/T790M/C797S (setting [7]) it was 0.2 nM; on EGFR L858R/T790M/C797S (setting [12]), 0.1 nM.
On to `O=S(=O)(C1CC1)n1cc(-c2nccc(Nc3cc(N[C@H]4CCC[C@H](O)C4)c(C#Cc4cnn(CC(F)(F)F)c4)cn3)n2)cn1` [Example 341, (1S,3S)-3-((2-((2-(1-(Cyclopropylsulfonyl)-1H-pyrazol-4-yl)pyrimidin-4-yl)amino)-5-((1-(2,2,2-trifluoroethyl)-1H-pyrazol-4-yl)ethynyl)pyridin-4-yl)amino)cyclohexan-1-ol], for which the IC50 against EGFR L858R/C797S (setting [2]) was 128 nM; on EGFR L858R/C797S (setting [8]), 42.4 nM; at EGFR wildtype (WT) (IC50 WT (nM), 100 μM ATP), more than 10000 nM; on EGFR wildtype (WT) (setting [9]), 163 nM; against EGFR Del19/T790M/C797S (setting [4]) it was 3.1 nM; at EGFR Del19/T790M/C797S (setting [10]), 2.5 nM. For the same molecule, the IC50 at EGFR Del19/C797S (setting [6]) was 34.2 nM; on EGFR Del19/C797S (setting [11]) it was 21.4 nM; at EGFR L858R/T790M/C797S (setting [7]) it was 4 nM; on EGFR L858R/T790M/C797S (setting [12]) it was 0.9 nM.
As for `O=S(=O)(C1CC1)n1cc(-c2nccc(Nc3cc(N[C@H]4CC[C@@H](O)CC4)c(C#Cc4ccc(NCCN5CCOCC5)cc4)cn3)n2)cn1` [Example 172, (1s,4s)-4-((2-((2-(1-(Cyclopropylsulfonyl)-1H-pyrazol-4-yl)pyrimidin-4-yl)amino)-5-((4-((2-morpholinoethyl)amino)phenyl)ethynyl)pyridin-4-yl)amino)cyclohexan-1-ol], the IC50 was 11.5 nM at EGFR L858R/C797S (setting [1]); 124 nM on EGFR L858R/C797S (read-out: IC50 L858R/C797S (nM), 100 μM ATP); 68.4 nM on EGFR wildtype (WT) (setting [3]); more than 10000 nM at EGFR wildtype (WT) (read-out: IC50 WT (nM), 100 μM ATP); 4.6 nM at EGFR Del19/T790M/C797S (ATP at Km, read-out: IC50 Del19/T790M/C797S (nM), Km ATP); 6.9 nM at EGFR Del19/T790M/C797S (read-out: IC50 Del19/T790M/C797S (nM), 100 μM ATP). Moreover, the IC50 on EGFR Del19/C797S (setting [5]) amounted to 14.1 nM; at EGFR Del19/C797S (read-out: IC50 Del19/C797S (nM), 100 μM ATP) it was 32.4 nM; on EGFR L858R/T790M/C797S (ATP at Km, read-out: IC50 L858R/T790M/C797S (nM), Km ATP), 4.8 nM; at EGFR L858R/T790M/C797S (read-out: IC50 L858R/T790M/C797S (nM), 100 μM ATP), 14.5 nM.
